Assay results published in patent US20220170944A1, “MATERIALS AND METHODS FOR IDENTIFYING AND TREATING EOSINOPHILIC DISORDERS” (The Regents of the University of California, priority 2019, published 2022).

Columns and labels:
[1] = cited from earlier work
[2] = test system: EoE fibroblasts and esophageal epithelial cells; assay: COMP expression in cells treated in vitro with recombinant TGFb1; type: cell-based, human; conditions: p<0.0001
Procedure: Primary esophageal fibroblasts from EoE patients were used. The fibroblast were treated in vitro with recombinant TGFb1. […] Biopsies were scored using a standardized histology score. […] COMP expression correlated with fibrosis (r=[…]), basal zone hyperplasia (r=0.59, p<0.0001), and eosinophilia (r=0.54, p<0.0001).

Row | Compound | tolerability / drug-related adverse events compared to placebo [1] | COMP expression induction [2]
1 | CCc1ccc(CCOc2ccc(CC3SC(=O)NC3=O)cc2)nc1 (centres unmarked) [Pioglitazone, pioglitazone] | no major drug-related adverse events | –
2 | TGFb1: recombinant TGFb1, the canonical pro-fibrotic molecule transforming growth factor-beta-1 | – | up to 6000 fold
